From ChEMBL document CHEMBL1201862, “PubChem BioAssay data set” (2004)
Calls of active or inactive are those of the source.

Key:
[1] = molecular target: Voltage-gated inwardly rectifying potassium channel KCNH2 (Homo sapiens, UniProt Q12809); test: hERG protection from proarrhythmic block, potency, dose response, cell-based, thallium flux (AID 2121); type: ADME
[2] = molecular target: Cytochrome P450 2C19 (Homo sapiens, UniProt P33261); test: Cytochrome panel assay with activity outcomes. Panel member name: p450-cyp2c19 Compounds with AC50 equal or less than 10 uM are considered active; type: functional; conditions: read-out: AC50
[3] = molecular target: T1, Protein skinhead-1 (Caenorhabditis elegans, UniProt P34707); type: functional
T1 sequence (P34707 whole entry): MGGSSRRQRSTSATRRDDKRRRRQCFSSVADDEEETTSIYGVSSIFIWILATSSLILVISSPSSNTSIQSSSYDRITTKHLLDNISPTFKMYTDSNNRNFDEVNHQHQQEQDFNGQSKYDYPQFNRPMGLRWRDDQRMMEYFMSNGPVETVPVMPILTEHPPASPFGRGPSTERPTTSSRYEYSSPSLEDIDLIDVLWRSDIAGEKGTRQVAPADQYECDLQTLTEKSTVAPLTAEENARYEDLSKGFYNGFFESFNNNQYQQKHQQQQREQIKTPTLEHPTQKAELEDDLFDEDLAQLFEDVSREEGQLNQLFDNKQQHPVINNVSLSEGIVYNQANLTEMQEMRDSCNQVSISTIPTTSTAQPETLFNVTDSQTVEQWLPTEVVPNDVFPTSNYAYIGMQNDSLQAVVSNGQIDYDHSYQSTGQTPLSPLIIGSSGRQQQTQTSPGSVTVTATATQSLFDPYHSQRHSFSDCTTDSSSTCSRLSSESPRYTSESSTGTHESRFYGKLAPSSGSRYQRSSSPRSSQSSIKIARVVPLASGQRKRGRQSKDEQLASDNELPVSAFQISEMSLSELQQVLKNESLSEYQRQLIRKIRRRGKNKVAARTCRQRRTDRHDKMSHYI

[4] = molecular target: Cytochrome P450 3A4 (Homo sapiens, UniProt P08684);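 also: CYP3A4 tested as one member of a cytochrome P450 panel screen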
[5] = molecular target: Cytochrome P450 2C9 (Homo sapiens, UniProt P11712)
[6] = molecular target: Induced myeloid leukemia cell differentiation protein Mcl-1 (Homo sapiens, UniProt Q07820); test: MCL1-BIM BH3 interaction inhibitors, dose response, biochemical, fluorescence polarization, BIM-BH3 peptide, 1536-well (AID 2217)
[7] = molecular target: Bcl-2-like protein 1 (Homo sapiens, UniProt Q07817); test: BCL-XL inhibitors, dose response, selectivity assay for MCL1 inhibitor project, biochemical, fluorescence polarization, 1536-well (AID 2218)
[8] = molecular target: Intestinal-type alkaline phosphatase (Mus musculus, UniProt P24822); test: PubChem AID 488785; type: functional
[9] = molecular target: T2, Alkaline phosphatase, tissue-nonspecific isozyme (Homo sapiens, UniProt P05186); test: TNAP enzyme inhibition by screening hits, dose response, selectivity assay for mouse IAP inhibitor project, biochemical, human TNAP, uHTS hits (AID 488906); type: functional
T2 sequence (P05186 whole entry): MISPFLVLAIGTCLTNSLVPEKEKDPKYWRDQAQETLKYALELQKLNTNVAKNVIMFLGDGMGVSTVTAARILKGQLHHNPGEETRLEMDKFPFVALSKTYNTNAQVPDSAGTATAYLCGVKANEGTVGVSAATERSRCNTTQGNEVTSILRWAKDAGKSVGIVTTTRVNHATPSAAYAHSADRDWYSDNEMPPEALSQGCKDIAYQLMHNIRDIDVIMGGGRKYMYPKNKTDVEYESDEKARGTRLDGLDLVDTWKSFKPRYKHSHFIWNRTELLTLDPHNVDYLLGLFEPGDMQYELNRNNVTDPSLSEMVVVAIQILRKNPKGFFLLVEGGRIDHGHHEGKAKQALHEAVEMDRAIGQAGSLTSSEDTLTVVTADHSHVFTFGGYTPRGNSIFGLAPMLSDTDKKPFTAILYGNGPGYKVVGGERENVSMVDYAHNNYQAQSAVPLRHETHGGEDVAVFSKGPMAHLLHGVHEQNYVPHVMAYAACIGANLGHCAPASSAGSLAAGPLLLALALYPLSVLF

[10] = molecular target: Intestinal-type alkaline phosphatase (Homo sapiens, UniProt P09923); test: inhibition of human intestinal alkaline phosphatase – biochemical, dose response (AID 488876); type: functional
[11] = molecular target: T3, Neuropeptide Y receptor type 2 (Homo sapiens, UniProt P49146); test: NPY-Y2 antagonist potency, selectivity check, dose response, counter-screen for NPY-Y1 antagonist project, cell-based (AID 1278); type: functional
T3 sequence (P49146 whole entry): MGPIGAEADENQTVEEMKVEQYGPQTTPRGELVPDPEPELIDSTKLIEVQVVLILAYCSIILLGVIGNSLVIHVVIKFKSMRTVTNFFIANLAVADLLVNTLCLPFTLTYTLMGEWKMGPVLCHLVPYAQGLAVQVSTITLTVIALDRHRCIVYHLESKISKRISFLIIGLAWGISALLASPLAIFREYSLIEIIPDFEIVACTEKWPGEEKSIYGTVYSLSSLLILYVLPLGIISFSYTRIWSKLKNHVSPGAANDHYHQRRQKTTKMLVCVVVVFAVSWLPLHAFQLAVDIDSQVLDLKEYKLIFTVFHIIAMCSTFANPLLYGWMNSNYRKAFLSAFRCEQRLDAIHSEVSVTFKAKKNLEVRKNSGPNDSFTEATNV

[12] = molecular target: T4, Neuropeptide Y receptor type 1 (Homo sapiens, UniProt P25929); test: NPY-Y1 receptor antagonist potency, dose response, cell-based (AID 1277); type: functional
T4 sequence (P25929 whole entry): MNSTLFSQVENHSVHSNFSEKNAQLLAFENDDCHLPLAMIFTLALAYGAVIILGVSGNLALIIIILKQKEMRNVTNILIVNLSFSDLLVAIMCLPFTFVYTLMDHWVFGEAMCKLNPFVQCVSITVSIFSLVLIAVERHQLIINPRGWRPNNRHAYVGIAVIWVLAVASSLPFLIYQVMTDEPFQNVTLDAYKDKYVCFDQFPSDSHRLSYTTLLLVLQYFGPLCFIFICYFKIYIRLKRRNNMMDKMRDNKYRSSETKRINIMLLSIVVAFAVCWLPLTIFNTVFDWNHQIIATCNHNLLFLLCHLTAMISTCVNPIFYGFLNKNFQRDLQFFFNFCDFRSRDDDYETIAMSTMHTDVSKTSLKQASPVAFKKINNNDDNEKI

[13] = M. tuberculosis H37Rv growth inhibitors, H37Rv strain (AID 1626); type: functional
[14] = A Cell Based Secondary Assay To Explore Cytotoxicity of Compounds that Sensitize Mycobacterium Tuberculosis to Beta-Lactam Antibiotics.; type: functional
[15] = molecular target: T5, Histone-lysine N-methyltransferase NSD2 (Homo sapiens, UniProt O96028); type: biochemical
T5 sequence (O96028 whole entry): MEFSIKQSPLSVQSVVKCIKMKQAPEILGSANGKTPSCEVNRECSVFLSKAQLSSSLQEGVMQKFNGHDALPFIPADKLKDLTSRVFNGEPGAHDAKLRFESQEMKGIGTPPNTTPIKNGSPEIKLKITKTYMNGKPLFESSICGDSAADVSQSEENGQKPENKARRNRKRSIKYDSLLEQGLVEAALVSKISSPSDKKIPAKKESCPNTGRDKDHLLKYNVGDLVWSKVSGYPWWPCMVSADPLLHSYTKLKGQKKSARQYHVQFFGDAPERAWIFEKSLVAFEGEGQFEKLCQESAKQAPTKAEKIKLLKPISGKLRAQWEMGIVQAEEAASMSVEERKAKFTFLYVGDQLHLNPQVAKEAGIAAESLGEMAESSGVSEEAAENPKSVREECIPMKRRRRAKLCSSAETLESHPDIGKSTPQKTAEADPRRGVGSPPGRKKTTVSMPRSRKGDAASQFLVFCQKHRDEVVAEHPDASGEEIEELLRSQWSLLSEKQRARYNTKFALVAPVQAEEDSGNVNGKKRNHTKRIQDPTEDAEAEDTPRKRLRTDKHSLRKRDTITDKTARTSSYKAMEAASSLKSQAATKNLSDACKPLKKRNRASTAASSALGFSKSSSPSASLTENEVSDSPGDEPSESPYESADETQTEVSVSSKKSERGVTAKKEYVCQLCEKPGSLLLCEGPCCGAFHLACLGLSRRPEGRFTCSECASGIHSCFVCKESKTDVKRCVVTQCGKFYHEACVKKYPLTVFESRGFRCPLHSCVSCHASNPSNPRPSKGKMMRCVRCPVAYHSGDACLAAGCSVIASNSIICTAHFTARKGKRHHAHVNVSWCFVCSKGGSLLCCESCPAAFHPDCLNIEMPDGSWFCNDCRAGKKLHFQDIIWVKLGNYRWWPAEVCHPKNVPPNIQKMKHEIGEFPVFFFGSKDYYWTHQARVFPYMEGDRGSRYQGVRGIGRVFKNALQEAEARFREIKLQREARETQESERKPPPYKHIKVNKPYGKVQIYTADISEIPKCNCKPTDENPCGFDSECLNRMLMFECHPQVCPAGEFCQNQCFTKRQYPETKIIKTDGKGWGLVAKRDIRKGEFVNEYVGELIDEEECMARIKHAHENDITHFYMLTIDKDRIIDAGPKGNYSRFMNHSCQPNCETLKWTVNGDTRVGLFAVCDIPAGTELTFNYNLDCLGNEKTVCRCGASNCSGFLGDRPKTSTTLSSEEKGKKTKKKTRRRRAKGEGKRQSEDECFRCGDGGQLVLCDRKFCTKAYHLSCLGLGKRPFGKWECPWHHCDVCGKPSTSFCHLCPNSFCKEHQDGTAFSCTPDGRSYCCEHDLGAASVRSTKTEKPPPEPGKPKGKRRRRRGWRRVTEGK

[16] = molecular target: NAD-dependent protein deacylase sirtuin-5, mitochondrial (Homo sapiens, UniProt Q9NXA8); test: SIRT5 desuccinylase inhibitors, dose response, biochemical, fluorescence imaging, cherry-pick, set 5 (AID 720591);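 also: desuccinylation of succinyl peptide AMC substrate read as fluorescence after trypsin release; potency of inhibitors that lower fluorescence and may act on trypsin instead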
[17] = molecular target: Eukaryotic translation initiation factor 4E (Mus musculus, UniProt P63073); test: eIF4E–eIF4G protein interaction inhibitors, dose response, biochemical, TR-FRET (AID 855); type: functional;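 also: potency for disrupting eIF4E binding to eIF4GI seen as loss of FRET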
[18] = molecular target: T6, Carboxy-terminal domain RNA polymerase II polypeptide A small phosphatase 1 (Homo sapiens, UniProt Q9GZU7); test: inhibitors of CTDSP1, concentration-response testing, biochemical assay, absorbance-based, actives from ultra-high-throughput screening (AID 540297); type: functional
T6 sequence (Q9GZU7 whole entry): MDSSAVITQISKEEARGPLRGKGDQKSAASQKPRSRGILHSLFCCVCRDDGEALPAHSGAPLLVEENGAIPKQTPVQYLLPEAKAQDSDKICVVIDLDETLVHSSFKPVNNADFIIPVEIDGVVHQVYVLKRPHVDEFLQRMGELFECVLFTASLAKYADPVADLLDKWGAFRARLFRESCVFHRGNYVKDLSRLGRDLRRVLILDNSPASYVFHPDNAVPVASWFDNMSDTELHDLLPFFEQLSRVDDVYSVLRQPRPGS

[19] = growth suppression of PTEN-null colon cells, dose response, cell-based, HCT116 PTEN knockout (AID 1047); type: functional;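 also: HCT116 colon tumor cells with PTEN knocked out; cells exposed to compound for 60 hours before readout; potency for loss of cell viability measured by luminescence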
[20] = growth suppression of beta-catenin-knockout colon cells, dose response, cell-based, HCT116, human colon tumor (AID 1045); type: functional;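 also: HCT116 colon tumor cells with beta catenin knocked out; cells exposed to compound for 60 hours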
[21] = molecular target: Neurotensin receptor type 1 (Homo sapiens, UniProt P30989); type: functional;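 also: Image-based confirmatory dose-response assay measuring agonist activity at NTR1; NTR1-expressing U2OS osteosarcoma cells imaged for beta-arrestin GFP spot formation; agonist potency where compounds increase beta-arrestin recruitment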
[22] = A549 cell cytotoxicity, dose response, cytotoxicity control, plate reader, cherry-pick, antagonist series (AID 743412); type: functional, cell-based
[23] = HepG2 cell cytotoxicity, dose response, cytotoxicity control, plate reader, cherry-pick, antagonist series (AID 743416); type: functional, cell-based
[24] = LGR2 antagonists, dose response, cell-based, HEK293, CRE-luciferase reporter, cherry pick, set 2 (AID 743343); type: functional;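 also: transfected cells were stimulated with diluted bursicon conditioned medium after compound addition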
[25] = MC4R antagonists, dose response, counter-screen for LGR2 antagonist project, cell-based, plate reader, cherry pick (AID 743444); type: functional;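 also: transfected HEK 293 cells stimulated with alpha-MSH peptide; potency of inhibitors of the alpha-MSH evoked signal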
[26] = HEK293 cell cytotoxicity, dose response, cytotoxicity control, plate reader, cherry-picked samples (AID 743446); type: functional, cell-based

Bcl-2-like protein 1, sequence (Q07817 whole entry): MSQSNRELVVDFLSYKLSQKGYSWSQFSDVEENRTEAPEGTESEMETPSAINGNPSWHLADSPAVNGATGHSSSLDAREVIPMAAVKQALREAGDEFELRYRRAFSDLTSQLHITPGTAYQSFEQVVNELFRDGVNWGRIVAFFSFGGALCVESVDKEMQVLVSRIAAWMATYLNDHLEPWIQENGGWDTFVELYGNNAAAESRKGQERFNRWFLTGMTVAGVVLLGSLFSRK
Induced myeloid leukemia cell differentiation protein Mcl-1, sequence (Q07820 whole entry): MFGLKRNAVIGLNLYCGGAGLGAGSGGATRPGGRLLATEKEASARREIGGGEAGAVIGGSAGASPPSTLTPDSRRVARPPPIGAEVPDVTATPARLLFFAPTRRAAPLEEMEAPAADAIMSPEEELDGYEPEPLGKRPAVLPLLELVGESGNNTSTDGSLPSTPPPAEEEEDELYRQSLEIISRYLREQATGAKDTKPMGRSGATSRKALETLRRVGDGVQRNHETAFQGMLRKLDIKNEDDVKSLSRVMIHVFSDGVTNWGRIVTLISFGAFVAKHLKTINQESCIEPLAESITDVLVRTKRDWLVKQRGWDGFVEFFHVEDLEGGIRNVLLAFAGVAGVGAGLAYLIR
Voltage-gated inwardly rectifying potassium channel KCNH2, sequence (Q12809 whole entry): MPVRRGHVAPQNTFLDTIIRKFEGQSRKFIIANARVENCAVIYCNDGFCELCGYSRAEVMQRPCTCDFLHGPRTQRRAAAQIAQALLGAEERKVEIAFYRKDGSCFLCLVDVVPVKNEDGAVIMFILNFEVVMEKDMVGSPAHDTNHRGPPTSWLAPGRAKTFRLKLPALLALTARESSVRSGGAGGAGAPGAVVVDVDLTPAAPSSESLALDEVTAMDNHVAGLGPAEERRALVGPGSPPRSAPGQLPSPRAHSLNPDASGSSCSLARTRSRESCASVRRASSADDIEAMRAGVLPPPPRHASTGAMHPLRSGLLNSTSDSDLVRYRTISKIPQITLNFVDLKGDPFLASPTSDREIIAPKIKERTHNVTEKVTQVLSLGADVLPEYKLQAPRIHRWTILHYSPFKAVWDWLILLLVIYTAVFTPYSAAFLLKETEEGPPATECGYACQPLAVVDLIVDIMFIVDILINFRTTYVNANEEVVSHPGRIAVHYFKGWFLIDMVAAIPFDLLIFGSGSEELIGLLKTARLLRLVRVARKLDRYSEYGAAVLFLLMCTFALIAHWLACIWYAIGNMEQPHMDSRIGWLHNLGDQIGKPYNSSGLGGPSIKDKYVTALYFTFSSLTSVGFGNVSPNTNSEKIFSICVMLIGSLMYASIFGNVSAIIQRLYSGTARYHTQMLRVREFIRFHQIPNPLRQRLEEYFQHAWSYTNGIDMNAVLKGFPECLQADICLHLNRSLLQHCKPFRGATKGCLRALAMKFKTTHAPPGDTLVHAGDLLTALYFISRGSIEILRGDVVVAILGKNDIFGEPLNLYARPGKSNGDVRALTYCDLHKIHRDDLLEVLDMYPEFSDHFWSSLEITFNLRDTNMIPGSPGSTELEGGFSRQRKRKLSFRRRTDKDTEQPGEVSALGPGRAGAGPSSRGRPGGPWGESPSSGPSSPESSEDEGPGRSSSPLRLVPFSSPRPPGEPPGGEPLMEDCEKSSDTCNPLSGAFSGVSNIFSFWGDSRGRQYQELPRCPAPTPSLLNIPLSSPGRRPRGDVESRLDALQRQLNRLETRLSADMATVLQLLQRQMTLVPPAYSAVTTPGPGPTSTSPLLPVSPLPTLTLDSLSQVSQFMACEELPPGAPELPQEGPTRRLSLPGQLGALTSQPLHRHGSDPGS
Intestinal-type alkaline phosphatase (Homo sapiens, UniProt P09923), sequence (P09923 whole entry): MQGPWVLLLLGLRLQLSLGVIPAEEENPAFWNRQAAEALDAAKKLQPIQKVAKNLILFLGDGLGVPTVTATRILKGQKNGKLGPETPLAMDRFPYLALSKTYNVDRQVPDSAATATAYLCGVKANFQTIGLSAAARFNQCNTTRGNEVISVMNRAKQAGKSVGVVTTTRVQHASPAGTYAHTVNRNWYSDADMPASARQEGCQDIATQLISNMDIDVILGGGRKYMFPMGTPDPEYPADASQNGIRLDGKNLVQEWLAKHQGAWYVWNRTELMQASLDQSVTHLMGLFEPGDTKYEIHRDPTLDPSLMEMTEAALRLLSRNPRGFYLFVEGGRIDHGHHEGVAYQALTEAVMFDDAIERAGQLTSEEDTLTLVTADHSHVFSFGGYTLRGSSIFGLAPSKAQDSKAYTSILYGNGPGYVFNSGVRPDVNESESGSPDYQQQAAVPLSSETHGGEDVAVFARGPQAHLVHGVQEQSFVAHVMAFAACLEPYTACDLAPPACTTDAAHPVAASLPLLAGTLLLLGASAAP
Intestinal-type alkaline phosphatase (Mus musculus, UniProt P24822), sequence (P24822 whole entry): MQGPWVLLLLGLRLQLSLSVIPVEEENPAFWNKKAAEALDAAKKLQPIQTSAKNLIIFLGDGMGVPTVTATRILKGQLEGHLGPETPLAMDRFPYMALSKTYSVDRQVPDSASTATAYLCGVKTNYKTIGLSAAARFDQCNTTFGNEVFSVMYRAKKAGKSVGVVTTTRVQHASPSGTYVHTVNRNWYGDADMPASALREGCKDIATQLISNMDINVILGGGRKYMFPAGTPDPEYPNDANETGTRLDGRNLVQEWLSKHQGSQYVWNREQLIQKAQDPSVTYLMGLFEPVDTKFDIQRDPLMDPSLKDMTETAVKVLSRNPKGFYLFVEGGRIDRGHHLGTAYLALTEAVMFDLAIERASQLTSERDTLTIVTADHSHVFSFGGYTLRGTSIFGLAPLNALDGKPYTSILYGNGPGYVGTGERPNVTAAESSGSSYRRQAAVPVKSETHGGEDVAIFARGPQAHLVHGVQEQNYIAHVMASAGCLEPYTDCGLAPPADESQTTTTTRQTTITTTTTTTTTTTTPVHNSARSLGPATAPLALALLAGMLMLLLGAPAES
Eukaryotic translation initiation factor 4E, sequence (P63073 whole entry, the tested form may be a part): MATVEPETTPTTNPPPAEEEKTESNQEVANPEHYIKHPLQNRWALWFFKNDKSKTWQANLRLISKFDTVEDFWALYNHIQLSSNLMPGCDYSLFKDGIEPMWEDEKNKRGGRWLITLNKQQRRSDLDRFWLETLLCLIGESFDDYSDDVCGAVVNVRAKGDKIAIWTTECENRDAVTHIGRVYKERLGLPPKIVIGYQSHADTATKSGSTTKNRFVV
Neurotensin receptor type 1, sequence (P30989 whole entry): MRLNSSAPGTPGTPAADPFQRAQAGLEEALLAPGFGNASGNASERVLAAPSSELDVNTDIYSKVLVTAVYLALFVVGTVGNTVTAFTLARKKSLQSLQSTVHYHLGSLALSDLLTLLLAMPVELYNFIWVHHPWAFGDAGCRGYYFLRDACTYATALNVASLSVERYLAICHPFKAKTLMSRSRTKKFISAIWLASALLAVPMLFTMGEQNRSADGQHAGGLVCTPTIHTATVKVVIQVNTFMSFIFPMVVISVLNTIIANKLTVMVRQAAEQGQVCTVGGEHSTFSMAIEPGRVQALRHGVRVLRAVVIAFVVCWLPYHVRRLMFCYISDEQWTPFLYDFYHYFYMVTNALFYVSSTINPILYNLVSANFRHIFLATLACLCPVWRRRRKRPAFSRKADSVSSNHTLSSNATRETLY
Cytochrome P450 3A4, sequence (P08684 whole entry): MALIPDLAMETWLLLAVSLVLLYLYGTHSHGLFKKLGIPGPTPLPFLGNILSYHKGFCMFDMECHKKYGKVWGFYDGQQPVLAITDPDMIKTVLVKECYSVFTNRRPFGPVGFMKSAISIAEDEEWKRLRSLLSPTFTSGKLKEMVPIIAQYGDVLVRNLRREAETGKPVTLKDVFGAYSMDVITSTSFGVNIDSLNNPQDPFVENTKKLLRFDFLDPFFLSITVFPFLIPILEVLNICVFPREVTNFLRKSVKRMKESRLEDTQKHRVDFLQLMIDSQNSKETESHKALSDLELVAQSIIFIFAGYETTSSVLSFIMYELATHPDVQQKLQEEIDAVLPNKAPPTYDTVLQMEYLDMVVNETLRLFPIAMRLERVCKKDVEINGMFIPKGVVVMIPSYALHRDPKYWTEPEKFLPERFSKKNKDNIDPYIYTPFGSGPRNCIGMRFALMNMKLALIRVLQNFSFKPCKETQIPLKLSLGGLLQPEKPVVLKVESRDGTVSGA
Cytochrome P450 2C9, sequence (P11712 whole entry): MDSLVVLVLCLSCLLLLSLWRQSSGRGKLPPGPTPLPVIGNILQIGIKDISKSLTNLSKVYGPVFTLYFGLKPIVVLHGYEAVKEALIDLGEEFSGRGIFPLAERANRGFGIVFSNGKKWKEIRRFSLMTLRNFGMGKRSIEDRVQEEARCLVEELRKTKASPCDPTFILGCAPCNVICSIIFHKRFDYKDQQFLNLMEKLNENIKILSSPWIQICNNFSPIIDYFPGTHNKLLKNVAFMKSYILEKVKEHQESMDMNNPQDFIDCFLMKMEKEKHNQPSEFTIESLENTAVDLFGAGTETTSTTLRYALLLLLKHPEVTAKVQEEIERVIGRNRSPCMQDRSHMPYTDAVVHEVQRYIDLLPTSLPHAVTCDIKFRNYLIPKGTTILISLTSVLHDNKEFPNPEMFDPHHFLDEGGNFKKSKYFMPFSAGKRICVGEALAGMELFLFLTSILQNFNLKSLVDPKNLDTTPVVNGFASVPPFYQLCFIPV
Cytochrome P450 2C19, sequence (P33261 whole entry): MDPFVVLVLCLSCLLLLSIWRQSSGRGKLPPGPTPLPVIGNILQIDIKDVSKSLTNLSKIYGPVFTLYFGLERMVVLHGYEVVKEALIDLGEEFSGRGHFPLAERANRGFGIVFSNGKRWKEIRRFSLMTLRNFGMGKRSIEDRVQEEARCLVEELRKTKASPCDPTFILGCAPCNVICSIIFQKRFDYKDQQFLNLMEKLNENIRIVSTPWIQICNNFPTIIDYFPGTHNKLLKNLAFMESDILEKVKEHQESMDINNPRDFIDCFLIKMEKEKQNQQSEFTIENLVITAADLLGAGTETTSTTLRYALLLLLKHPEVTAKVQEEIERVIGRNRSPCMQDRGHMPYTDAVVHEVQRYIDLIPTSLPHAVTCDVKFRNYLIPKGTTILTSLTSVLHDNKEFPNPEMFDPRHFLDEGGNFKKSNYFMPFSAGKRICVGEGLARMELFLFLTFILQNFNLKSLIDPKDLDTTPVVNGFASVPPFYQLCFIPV

Cc1ccc(NC(=S)c2nc3ccccc3s2)cc1
EC50 [1]: 0.46 µM (active) | AC50 [2]: 0.0251 µM (inconclusive) | IC50 [3]: > 100 µM (inactive) | AC50 [4]: 22.4 µM (inconclusive) | AC50 [5]: 10 µM (inconclusive)

CCN(C(=O)C(C)N1C(=O)/C(=C/c2ccco2)SC1=S)C1CCS(=O)(=O)C1 (stereo not given)
IC50 [6]: > 12.1 µM (not active) | IC50 [7]: > 109 µM (not active) | IC50 [8]: 0.419 µM (active) | IC50 [9]: 11.1 µM (active) | IC50 [10]: 3.79 µM (active)

CCC(C)(C(=O)NC1CCCC1)N(Cc1ccco1)C(=O)Cc1cccs1 (stereo not given)
IC50 [11]: > 35 µM (not active) | IC50 [12]: > 35 µM (not active)

N#Cc1ccc(/C=C/C(=O)c2ccc3c(c2)OCO3)cc1
IC50 [13]: > 100 µM (active)

CCOC(=O)C1(CCCc2ccccc2)CCN(C2CCSCC2)CC1
IC50 [11]: > 35 µM (not active) | IC50 [12]: 16.7 µM (not active)

Sc1ncnc2scc(-c3ccc(Br)cc3)c12
CC50 [14]: 25.9 µM (active) | IC50 [13]: > 100 µM (active)

N#Cc1c(SCC(=O)Nc2nncs2)sc2c(O)cc(=O)[nH]c12
IC50 [6]: 25.3 µM (not active) | IC50 [7]: 96.5 µM (not active) | IC50 [8]: 2.3 µM (active) | IC50 [9]: > 100 µM (inactive) | IC50 [10]: > 100 µM (inactive) | AC50 [15]: 6.29 µM (active) | AC50 [16]: 4.58 µM (active)

O=C1C2CC=CCC2C(=O)N1c1ccc(Cc2ccncc2)cc1 (stereo not given)
EC50 [1]: 0.86 µM (active)

CC(C)(C)NCc1cc(Br)ccc1OC1CCCC1
IC50 [11]: 11.2 µM (not active) | IC50 [12]: 7.43 µM (active)

O=C(/C=C/c1ccco1)N(c1ccccn1)c1ccccn1
IC50 [6]: 19.8 µM (not active) | IC50 [7]: > 109 µM (not active) | IC50 [17]: 50 µM (inactive) | IC50 [18]: 3.29 µM (active)

CC(C)C(=O)N1CCN(c2ccc(NC(=O)c3ccc4c(c3)OCCO4)cc2Cl)CC1
IC50 [13]: > 100 µM (active) | EC50 [19]: 9.21 µM (active) | EC50 [20]: 9.2 µM (active) | EC50 [21]: 18.5 µM (active) | AC50 [22]: 22.6 µM (active) | AC50 [23]: 17.7 µM (active) | AC50 [24]: 16 µM (active) | AC50 [25]: 19.1 µM (active) | AC50 [26]: 10.7 µM (active)
